Data taken from CN102911068A, “左旋肉碱l-苹果酸盐及其制备方法与用途” (GUANGZHOU AOHAI BIO-TECHNOLOGY CO LTD, priority 2011, dated 2013).

Tests used:
[1] = Critical relative humidity (CRH) from moisture absorption equilibrium curve; type: physicochemical
[2] = test system: obese model rats [肥胖模型大鼠]; experiment: Weight-loss efficacy test in obese model SD rats (diet-induced obesity, with swimming exercise); type: in vivo, rat; conditions: 30 days; for body fat (testicular and perirenal fat pads) / body weight increase / fat/body ratio: gavage
[3] = Angle of repose (powder poured through a funnel) / flowability; type: physicochemical
[4] = background art, cited from earlier work
[5] = background art; cited from earlier work
[6] = high dose + exercise (30x recommended human dose; Ex. 2 at maximum dissolved concentration; Ex. 1/2/3/4: 0.96/0.36/1.02/1.08 g in 2 ml water), * (P<0.05 vs model control): all
[7] = L-carnitine tartrate control + exercise, 0.13 g in 2 ml water, swimming 30 min, 5 times/week, * (P<0.05 vs model control) printed

With `C[N+](C)(C)CC(O)CC(=O)O` (centres unmarked) [实施例1药, 左旋肉碱L-苹果酸盐] as the molecule, how does the “critical relative humidity CRH” value ([1]; 25 °C, saturated salt solutions in desiccator) read?
The value was 87%.

What about the “moisture absorption (hygroscopicity)” value ([1]; words, judged from CRH at 25 °C) of the same molecule?
The value was “不易吸潮”.

What about the “body fat (testicular and perirenal fat pads)” value (from here on “body fat”) [2, 6] of the same molecule?
Its value is 5.9 ± 4.5 g.

What about the body weight increase [2, 6] of the same molecule?
Its body weight increase is 15.2 ± 7.9 g.

And the fat/body ratio [2, 6]?
Its fat/body ratio is 0.02±0.02.

What about the body weight increase ([2]; low dose + exercise (5x recommended human dose; Ex. 1/2/3/4: 0.16/0.18/0.17/0.18 g in 2 ml water), * (P<0.05 vs model control): Ex. 1, 3, 4) of the same molecule?
Its body weight increase is 19.3 ± 10.2 g.

And the “body fat” value ([2]; low dose + exercise (5x recommended human dose; Ex. 1/2/3/4: 0.16/0.18/0.17/0.18 g in 2 ml water), * (P<0.05 vs model control): Ex. 2, 3, 4)?
Its value is 7.3 ± 4.1 g.

And the fat/body ratio ([2]; low dose + exercise (5x recommended human dose; Ex. 1/2/3/4: 0.16/0.18/0.17/0.18 g in 2 ml water), no * printed)?
Its fat/body ratio is 0.03±0.01.

What about the “difference between results of Example 1, 2, 3 and 4 drugs” value ([2]; words, obese rats) of the same molecule?
The value was “无明显差异”.

What about the angle of repose ([3]; solid powder flowing from funnel) of the same molecule?
Its angle of repose is 30 °.

What about the flowability ([3]; words, judged from angle of repose) of the same molecule?
Its flowability is “流动性较好”.

With `C[N+](C)(C)CC(O)CC(=O)O` (centres unmarked) [左旋肉碱酒石酸盐, reference compound] as the molecule, how does the “body fat” value ([2]; L-carnitine tartrate control + exercise, 0.13 g in 2 ml water, swimming 30 min, 5 times/week) read?
Its value is 8.2 ± 4.3 g.

And the body weight increase [2, 7]?
The body weight increase was 21.3 ± 14.2 g.

What about the fat/body ratio [2, 7] of the same molecule?
Its fat/body ratio is 0.03±0.01.

And the hygroscopicity ([4]; words)?
The hygroscopicity was “仍有较大的吸湿性”.

And the “relative humidity at which deliquescence occurs” value [4]?
Its value is > 60%.

For `CC(=O)[O-].CC(=O)[O-].[Ca+2]` [醋酸钙], which LD50 [5] is on record?
The LD50 was < 5000 mg/kg.
